Activity calls are given as the source filed them.
Assays:
[1] = test system: Fibroblast; assay: Antiaging activity in human fibroblasts assessed as reduction in UVB-induced lamin A protein level after 6 days by Western blot method; assay type: functional, cell-based
[2] = test system: Fibroblast; assay: Antiaging activity in fibroblasts isolated from human assessed as reduction in UVB-induced phospho-H2AX protein level after 6 days by Western blotting method; assay type: functional, cell-based
[3] = Cytotoxicity against human UVB-induced fibroblasts assessed as cell viability; assay type: cell-based; settings: fibroblast
[4] = test system: Fibroblast; assay: Antiaging activity in human fibroblasts assessed as reduction in UVB-induced phospho-H2AX protein level after 6 days by Western blotting method; assay type: functional, cell-based
[5] = test system: Fibroblast; assay: Antiaging activity in human fibroblasts assessed as reduction of UVB-induced nucleus deformation after 6 days by confocal microscopy analysis; assay type: functional, cell-based
[6] = test system: Fibroblast; assay: Antiaging activity in human fibroblasts assessed as reduction in UVB-induced phospho-H2AX protein level after 6 days by confocal microscopy analysis; assay type: functional, cell-based

Measured: Activity

O=c1cc(-c2ccc(O)c(-c3c(O)cc(O)c4c(=O)cc(-c5ccc(O)cc5)oc34)c2)oc2cc(O)cc(O)c12 [AMENTOFLAVONE]
Non-toxic: [3]
active: [1] Dose-dependent effect | [2] Dose-dependent effect | [4] Dose-dependent effect | [5] | [6]

Source: ChEMBL document CHEMBL1909499, “Protective effects of amentoflavone on Lamin A-dependent UVB-induced nuclear aberration in normal human fibroblasts” (Bioorg Med Chem Lett, 2011)
